# PMC4089482, “Bacterial periplasmic sialic acid-binding proteins exhibit a conserved binding site” (Acta Crystallographica Section D: Biological Crystallography, 2014)
# Entries after “also recorded” stand apart in the source; their conditions may differ. Read-outs that look alike come from different tables or passages of the source.
# T1: Vc-SiaP (Vibrio cholerae serotype O1, UniProt Q9KR64)
# T1 construct: PCR-amplified using the forward primer 5′-[…]-3′; made in house; host or cells: Escherichia coli BL21 (DE3)
# T1 sequence (Q9KR64 23-321): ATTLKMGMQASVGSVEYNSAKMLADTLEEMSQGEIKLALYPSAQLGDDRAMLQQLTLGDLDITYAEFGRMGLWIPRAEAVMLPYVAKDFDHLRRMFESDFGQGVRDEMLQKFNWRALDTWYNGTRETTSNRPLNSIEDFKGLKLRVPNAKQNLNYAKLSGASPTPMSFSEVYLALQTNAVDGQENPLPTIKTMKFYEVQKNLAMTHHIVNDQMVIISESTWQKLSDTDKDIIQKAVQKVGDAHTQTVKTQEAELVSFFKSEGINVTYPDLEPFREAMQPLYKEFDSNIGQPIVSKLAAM
# Assays:
# [1] = target: T2, Hi-SiaP wild type (Haemophilus influenzae, UniProt P44542); set-up: method as in Johnston et al. (2008); details: taken for comparison; ref Johnston et al. (2008); cited from earlier work
# T2 construct: made in house
# [2] = tested on: V. cholerae O1 biovar eltor strain N16961; assay: Growth-curve experiment in M9 minimal medium with different sugars; type: cell-based, Vibrio cholerae; details: M9 minimal medium supplemented with sugar (5 mg ml^−1; all at 5 mM), 37°C
# Experimental: V. cholerae O1 biovar eltor strain N16961 was initially grown on LB agar plates. Subsequently, 3 ml M9 minimal medium supplemented with different sugars (5 mg ml^−1) was inoculated with bacteria at an OD600 of 0.07. These cultures were incubated in a 37°C shaker at 225 rev min^−1. Optical densities at A 600 were measured at various time points using a Spectronic GENESYS 20 Visible Spectrophotometer to observe the growth pattern of V. cholerae in different compounds. The different sugars used were Neu5Ac, Neu5Gc, fetuin (a glycoprotein of foetal serum that contains different sugars and sialic acid; Spiro, 1960[▶]), asialofetuin, galactose, glycerol, D-lactic acid, succinate, sucrose, DL-malic acid and fructose, all at 5 mM concentration. Based on the readings, a graph of OD600 was plotted.
# [3] = target: T3, Hi-SiaP E186Q mutant (Haemophilus influenzae, UniProt P44542, E209Q); assay: ITC binding of Neu5Ac to Hi-SiaP E186Q
# T3 construct: made in house
# Experimental: (§1) ITC measurements were performed using a MicroCal ITC system (GE Healthcare). The reaction buffer for all of the experiments was 20 mM HEPES pH 8.0, 10 mM NaCl. All titrations were carried out at 25°C. The protein concentration was determined using the Bio-Rad Bradford reagent. The concentrations of SiaP and Neu5Ac/Neu5Gc were varied in the different titrations and each binding experiment was repeated three times. The nonspecific heat released by the dilution of both the sugars and the protein was calculated by averaging the heat liberated during the last 3–5 injections after saturation. This value was then subtracted from the raw heat released during each injection. To derive the stoichiometric values, the data sets were analyzed using a single-site binding model from the Origin ITC analysis software (MicroCal). In this analysis, the values for the stoichiometry, the change in enthalpy (ΔH) and the affinity were fitted using nonlinear least-squares analysis. To derive the values for the affinity, ΔS and ΔH, data sets were globally analyzed using the single-site binding model in SEDPHAT (Vistica et al., 2004[▶]; Dam & Schuck, 2005[▶]).
# [4] = target: T1, Vc-SiaP; assay: ITC binding of sialic acids to Vc-SiaP; details: 25°C; for H (change in enthalpy, ΔH) / Kd / T S (entropic component): 20 mM HEPES pH 8.0, 10 mM NaCl
# Experimental: as §1
# [5] = target: Pm-SiaP (Pasteurella multocida, UniProt Q9CKB5); assay: ITC binding of sialic acids to Pm-SiaP
# Experimental: as §1
# [6] = target: T4, Hi-SiaP T64R mutant (Haemophilus influenzae, UniProt P44542, T87R); assay: ITC binding of Neu5Ac to Hi-SiaP T64R; details: 25°C
# T4 construct: made in house
# Experimental: as §1
# [7] = tested on: V. cholerae; assay: ELISA (3F11) of Neu5Ac incorporation onto surface LOS; type: cell-based, Vibrio cholerae
# Experimental: V. cholerae was grown on sBHI agar plates containing 100 µM Neu5Ac and LB. Cells were harvested and resuspended in PBS (20 mM Na2HPO4, 150 mM NaCl pH 7.0) at an OD600 of 0.2. The wells of Costar 96-well EIA/RIA plates (Corning) were filled with 100 µl of the bacterial suspension and six wells were used for each experiment. The plates were dried at 40°C overnight. The plates were washed four times with buffer C (72 mM sodium acetate, 165 mM sodium chloride, 0.55% Tween 20) using an ELx50 Strip Washer (BioTek Instruments, Winooski, Vermont, USA). A neuraminidase digest was performed on three wells by adding 100 µl 0.01 U ml^−1 neuraminidase (Roche Diagnostics GmbH, Mannheim, Germany) diluted in neuraminidase buffer (50 mM sodium acetate, 154 mM NaCl, 9 mM CaCl2, 25 µg ml^−1 human serum albumin pH 5.6) and the other three wells were treated with just the buffer. The plate was incubated for 6 h at 37°C and the wells were then washed. The monoclonal antibody 3F11, diluted 1/200 in buffer C, was added to each well. The plates were incubated at 37°C overnight (approximately 18 h) followed by a wash. The secondary antibody, phosphatase-labelled goat anti-mouse IgM (Kirkegaard and Perry Laboratories, Gaithersburg, Maryland, USA), diluted 1/2000 in buffer C, was added. […] When a yellow colour had developed, the absorbance at 405 nm was read using a Microplate Autoreader EL311 (BioTek Instruments).
# [8] = target: T5, Hi-SiaP T64K mutant (Haemophilus influenzae, UniProt P44542, T87K); assay: ITC binding of Neu5Ac to Hi-SiaP T64K
# T5 construct: made in house
# Experimental: as §1
# [9] = target: Fn-SiaP (Fusobacterium nucleatum subsp. nucleatum, UniProt Q8RDN9); assay: ITC binding of sialic acids to Fn-SiaP; details: 25°C; for H (change in enthalpy, ΔH) / Kd / T S (entropic component): 20 mM HEPES pH 8.0, 10 mM NaCl
# Experimental: as §1
# [10] = target: T2, Hi-SiaP wild type; assay: ITC binding of Neu5Ac to wild-type Hi-SiaP
# Experimental: as §1
# [11] = target: T6, Hi-SiaP H209A mutant (Haemophilus influenzae, UniProt P44542, H232A); assay: ITC binding of Neu5Ac to Hi-SiaP H209A; details: 25°C
# T6 construct: made in house
# Experimental: as §1
# [12] = target: T7, Hi-SiaP N187Q mutant (Haemophilus influenzae, UniProt P44542, N210Q); assay: ITC binding of Neu5Ac to Hi-SiaP N187Q; details: 25°C
# T7 construct: made in house
# Experimental: as §1
# [13] = target: T8, Hi-SiaP R127K mutant (Haemophilus influenzae, UniProt P44542, R150K); assay: ITC binding of Neu5Ac to Hi-SiaP R127K; details: 25°C
# T8 construct: made in house
# Experimental: as §1
# [14] = target: T9, Hi-SiaP E67A mutant (Haemophilus influenzae, UniProt P44542, E90A); assay: ITC binding of Neu5Ac to Hi-SiaP E67A
# T9 construct: made in house
# Experimental: as §1
# [15] = ITC, 20 mM HEPES pH 8.0, 10 mM NaCl, 25°C
# [16] = ITC, 20 mM HEPES pH 8.0, 10 mM NaCl, 25°C, read-out: K d
molecule,measurement,setting,value
CC(=O)NC1C(O)CC(O)(C(=O)O)OC1C(O)C(O)CO (stereo not drawn) [Neu5Ac],"H (change in enthalpy, ΔH)",[1],15300 calmol^1
same,Kd,[1],28 nM
same,T S (entropic component),[1],5000 calmol^1
same,growth of V. cholerae in the presence of the compound (OD600),[2],grows
same,affinity for Neu5Ac in words,[3],micromolar affinity
same,"H (change in enthalpy, ΔH)",[3]; 25°C,6827 calmol^1
same,T S (entropic component),[3]; 25°C,1016 calmol^1
same,"H (change in enthalpy, ΔH)",[4],7175 calmol^1
same,Kd,[4],306 nM
same,T S (entropic component),[4],508.9 calmol^1
same,"H (change in enthalpy, ΔH)",[5]; [15],6560 calmol^1
same,T S (entropic component),[5]; [15],3948.2 calmol^1
same,Kd,[5]; [16],19.7 nM
same,Kd,"[5]; fit box of the isotherm in Figure 4, single-site model, read-out: K (association constant) (converted)",27 nM
same,K d / binding to Neu5Ac,[6],No measurable binding
same,3F11 binding of V. cholerae grown with Neu5Ac (ELISA),"[7]; 100 µM Neu5Ac, binding did occur after neuraminidase: sialic acid incorporated into surface LOS",did not bind 3F11
same,difference in absorbance before and after adding neuraminidase (level of Neu5Ac incorporation),"[7]; 3F11 ELISA, Figure S4, very little difference in LB media control",significant difference
same,affinity for Neu5Ac in words,[8],micromolar affinity
same,"H (change in enthalpy, ΔH)",[8]; 25°C,8743 calmol^1
same,T S (entropic component),[8]; 25°C,294.72 calmol^1
same,"H (change in enthalpy, ΔH)",[9],9165 calmol^1
same,Kd,[9],45.5 nM
same,T S (entropic component),[9],849.3 calmol^1
same,affinity for Neu5Ac in words,[10],nanomolar affinity
same,Kd,"[10]; 20 mM HEPES pH 8.0, 10 mM NaCl, 25°C",16.6 nM
same,"H (change in enthalpy, ΔH)",[10]; 25°C,17500 calmol^1
same,T S (entropic component),[10]; 25°C,6883 calmol^1
same,"H (change in enthalpy, ΔH)",[11],13360 calmol^1
same,T S (entropic component),[11],4917 calmol^1
same,"H (change in enthalpy, ΔH)",[12],7939 calmol^1
same,T S (entropic component),[12],40.826 calmol^1
same,K d / binding to Neu5Ac,[13],did not bind to Neu5Ac with measurable affinity; also recorded: No measurable binding
same,affinity for Neu5Ac in words,[14],micromolar affinity
same,"H (change in enthalpy, ΔH)",[14]; 25°C,249.5 calmol^1
same,T S (entropic component),[14]; 25°C,6168.6 calmol^1
OCC(O)CO [glycerol],growth of V. cholerae in the presence of the compound (OD600),[2],No growth
O=C(CO)N[C@H]1[C@H]([C@H](O)[C@H](O)CO)OC(O)(C(=O)O)C[C@@H]1O (stereo partly drawn) [Neu5Gc],growth of V. cholerae in the presence of the compound (OD600),[2],No growth; also recorded: cannot use Neu5Gc as a carbon source
same,"H (change in enthalpy, ΔH)",[4],5200 calmol^1
same,Kd,[4],1090 nM
same,T S (entropic component),[4],1127.6 calmol^1
same,"H (change in enthalpy, ΔH)",[5]; [15],7469 calmol^1
same,T S (entropic component),[5]; [15],2777.3 calmol^1
same,Kd,[5]; [16],30.7 nM
same,"H (change in enthalpy, ΔH)",[9],12074 calmol^1
same,Kd,[9],45.7 nM
same,T S (entropic component),[9],2059.4 calmol^1
O=C(CO)[C@@H](O)[C@H](O)[C@H](O)CO [fructose],growth of V. cholerae in the presence of the compound (OD600),[2],Little growth
O=C[C@H](O)[C@@H](O)[C@@H](O)[C@H](O)CO [galactose],growth of V. cholerae in the presence of the compound (OD600),[2],No growth
O=C(O)CC(O)C(=O)O (racemic) [DL-malic acid],growth of V. cholerae in the presence of the compound (OD600),[2],Little growth
O=C(O)CCC(=O)O [succinate],growth of V. cholerae in the presence of the compound (OD600),[2],Little growth
OC[C@H]1O[C@@](CO)(O[C@H]2O[C@H](CO)[C@@H](O)[C@H](O)[C@H]2O)[C@@H](O)[C@@H]1O [sucrose],growth of V. cholerae in the presence of the compound (OD600),[2],Little growth
"CC(=O)N[C@H]1[C@H]([C@H](O)[C@H](O)CO)OC(C(=O)O)=C[C@@H]1O [Neu5Ac2en, N-acetyl-2,3-dehydro-2-deoxyneuraminic acid]",interaction measured by ITC,[4],no measurable interaction
same,interaction measured by ITC,"[5]; ITC, 25°C",no measurable interaction
same,interaction measured by ITC,[9],no measurable interaction
C[C@@H](O)C(=O)O [D-lactic acid],growth of V. cholerae in the presence of the compound (OD600),[2],No growth
"fetuin: a glycoprotein of foetal serum that contains different sugars and sialic acid (protein, UniProt P12763 19-359, looked up) Alpha-2-HS-glycoprotein: IPLDPVAGYKEPACDDPDTEQAALAAVDYINKHLPRGYKHTLNQIDSVKVWPRRPTGEVYDIEIDTLETTCHVLDPTPLANCSVRQQTQHAVEGDCDIHVLKQDGQFSVLFTKCDSSPDSAEDVRKLCPDCPLLAPLNDSRVVHAVEVALATFNAESNGSYLQLVEISRAQFVPLPVSVSVEFAVAATDCIAKEVVDPTKCNLLAEKQYGFCKGSVIQKALGGEDVRVTCTLFQTQPVIPQPQPDGAEAEAPSAVPDAAGPTPSAAGPPVASVVVGPSVVAVPLPLHRAHYDLRHTFSGVASVESSSGEAFHVGKTPIVGQPSIPGGPVRLCPGRIRYFKI",growth of V. cholerae in the presence of the compound (OD600),[2],grows
"asialofetunin: asialofetuin, used as a carbon source in the growth experiment (protein, UniProt P12763 19-359, looked up, desialylated, asialofetuin, used as a carbon source in the growth experiment) Alpha-2-HS-glycoprotein: IPLDPVAGYKEPACDDPDTEQAALAAVDYINKHLPRGYKHTLNQIDSVKVWPRRPTGEVYDIEIDTLETTCHVLDPTPLANCSVRQQTQHAVEGDCDIHVLKQDGQFSVLFTKCDSSPDSAEDVRKLCPDCPLLAPLNDSRVVHAVEVALATFNAESNGSYLQLVEISRAQFVPLPVSVSVEFAVAATDCIAKEVVDPTKCNLLAEKQYGFCKGSVIQKALGGEDVRVTCTLFQTQPVIPQPQPDGAEAEAPSAVPDAAGPTPSAAGPPVASVVVGPSVVAVPLPLHRAHYDLRHTFSGVASVESSSGEAFHVGKTPIVGQPSIPGGPVRLCPGRIRYFKI",growth of V. cholerae in the presence of the compound (OD600),[2],No growth
